Data on one molecule can be found in article PMC7723077, “Spatial Profiles of Phosphate in Roots Indicate Developmental Control of Uptake, Recycling, and Sequestration” (Plant Physiology, 2020).

The target in the assay is T1, cpFLIPPi-5.3m.
T1 construct: gene PiBP
As to conditions: in vivo, root epidermal cells of transition zone; injection buffer 50 mM MOPS-KOH pH 7.3, 0.5 mM MgCl2, total K+ 75 mM.

Regarding `O=P(O)(O)O` [Pi, inorganic phosphate], binding was put at a Kd of 7.4 ± 1.7 mM.
